Test results taken from patent publication US12128099B2 (priority 2018, dated 2024).
Values joined by “and” are separate entries in the source; they are usually repeats but may differ in a detail not shown here. Equal entries are not always repeated. Where two headings read alike, the source gives them in different places.

Columns and labels:
OvCa-26 = assay: cells; format: cell-based, human; conditions: read-out: calculated IC50
ID8 disseminated tumor = system: ID8 disseminated tumor; set-up: species or system mice; conditions: mouse, in vivo
OvCa-2a = assay: cells; format: cell-based, human; conditions: read-out: calculated IC50
[1] = system: primary OC cells (OvCa-2a and OvCa-26); format: cell-based, human
SKOV3 = assay: cells; format: cell-based, human
THP-1 SAMD9 KD cells = format: cell-based, human; conditions: FIGS. 15A-15D, 16C
murine OC ID8 cells = format: cell-based
[2] = system: OC patient ascites-associated CD14+ monocytes

Nc1ccn([C@@H]2O[C@H](CO)[C@@H](O)C2(F)F)c(=O)n1 [gemcitabine]
IC50 (OvCa-26; Homo sapiens): 14.6 µM | median survival time (ID8 disseminated tumor): 78 days | therapeutic benefit, single-agent treatment given late (ID8 disseminated tumor): did not lead to significant therapeutic benefit | IC50 (OvCa-2a; Homo sapiens): 960 µM | growth inhibition, drug treatment alone [1]: did not observe significant growth inhibition | IC50 (SKOV3; Homo sapiens, SK-OV-3): 9.32 µM

Nc1nc2c(ncn2[C@@H]2O[C@@H]3COP(=O)(O)O[C@H]4[C@@H](O)[C@H](n5cnc6c(N)ncnc65)O[C@@H]4COP(=O)(O)O[C@@H]2[C@@H]3O)c(=O)[nH]1 [2′3′-cGAMP]
IFNβ / ISG mRNA in SAMD9 KD cells versus control cells (THP-1 SAMD9 KD cells): comparably to control cells

N.N.[Cl][Pt][Cl] [cisplatin]
IC50 (OvCa-26): 11.4 µM | Median survival (ID8 disseminated tumor): 113 days and 127 days | median survival time (ID8 disseminated tumor): 90 days | survival (ID8 disseminated tumor): 40% | IC50 (murine OC ID8 cells): 2 µM | IC50 (OvCa-2a): 3.6 µM | growth inhibition, drug treatment alone [1]: did not observe significant growth inhibition | MYXV DNA replication (MYXV): inhibits DNA replication of MYXV | IC50 (SKOV3; read-out: IC50): 8.4 µM

O=[N+]([O-])c1ccc2c(c1)S(=O)(=O)C=C2 [Stattic]
IL-8 level [2]: unchanged levels of IL-8 | cytokine secretion (IL-10, IL-6) [2]: suppressive effect in cytokine secretion | toxicity [2]: did not cause noticeable toxicity
